According to patent publication US11814367B2, “Inhibitors of glycogen synthase 1 (GYS1) and methods of use thereof” (Maze Therapeutics, Inc., priority 2021, dated 2023):

Key:
[1] = target: hGYS1 enzyme (recombinant hGYS1/GN1 protein) (Homo sapiens (Human), UniProt P13807); experiment: GYS1 coupled enzyme assay (PK/LDH); assay type: biochemical; settings: hGYS1/GN1 50 nM, UDP-Glucose 0.8 mM, G6P 1 mM; geometric mean of at least 2 runs
[2] = test system: hGYS1 enzyme / glycogen synthesis in HeLa cells; experiment: GYS1 cell based assay (glycogen synthesis, Glucose-glo); design: species or system human; settings: Homo sapiens, HeLa, 24 h, 24 h incubation, 20 mM glucose, geometric mean of at least 2 runs
Method in brief: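 HeLa cells starved 24 h in medium containing only 1× Glutamax were plated onto compound in medium with 20 mM glucose (1% DMSO final) for 24 h, 37 °C, 5% CO2. Acid lysates were Tris-quenched, glucoamylase-digested (pH 5.3, 1 h, 37 °C) and read by Glucose-glo luminescence. IC50 came from Hill fits, as geometric mean of ≥2 runs.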

[3] = target: hGYS2 enzyme (recombinant hGYS2/GN1 protein) (Homo sapiens (Human), UniProt P54840); experiment: GYS2 coupled enzyme assay (PK/LDH); assay type: biochemical; settings: geometric mean of at least 2 assay runs on separate days, read-out: Avg_IC50
hGYS2 enzyme (recombinant hGYS2/GN1 protein), sequence (P54840 whole entry): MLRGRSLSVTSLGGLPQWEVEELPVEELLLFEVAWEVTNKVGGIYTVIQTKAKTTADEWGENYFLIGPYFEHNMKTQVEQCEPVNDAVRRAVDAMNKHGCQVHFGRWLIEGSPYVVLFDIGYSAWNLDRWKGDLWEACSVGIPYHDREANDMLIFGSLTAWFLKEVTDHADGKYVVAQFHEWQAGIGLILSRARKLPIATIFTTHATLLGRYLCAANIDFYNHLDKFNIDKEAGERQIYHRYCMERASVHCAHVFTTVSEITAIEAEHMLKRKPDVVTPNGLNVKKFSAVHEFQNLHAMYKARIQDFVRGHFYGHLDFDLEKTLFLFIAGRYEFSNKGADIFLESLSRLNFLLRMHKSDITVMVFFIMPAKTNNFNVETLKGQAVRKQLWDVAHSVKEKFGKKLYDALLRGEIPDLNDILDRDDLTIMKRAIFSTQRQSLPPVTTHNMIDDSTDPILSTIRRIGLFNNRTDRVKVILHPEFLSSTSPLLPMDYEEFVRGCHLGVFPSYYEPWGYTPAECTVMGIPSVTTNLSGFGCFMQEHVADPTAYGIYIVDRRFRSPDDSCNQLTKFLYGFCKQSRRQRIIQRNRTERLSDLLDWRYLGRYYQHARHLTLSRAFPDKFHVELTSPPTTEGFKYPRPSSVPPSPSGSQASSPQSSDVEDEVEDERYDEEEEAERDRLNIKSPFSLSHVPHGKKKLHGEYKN
hGYS2 enzyme (recombinant hGYS2/GN1 protein), sequence (P46976 whole entry partner): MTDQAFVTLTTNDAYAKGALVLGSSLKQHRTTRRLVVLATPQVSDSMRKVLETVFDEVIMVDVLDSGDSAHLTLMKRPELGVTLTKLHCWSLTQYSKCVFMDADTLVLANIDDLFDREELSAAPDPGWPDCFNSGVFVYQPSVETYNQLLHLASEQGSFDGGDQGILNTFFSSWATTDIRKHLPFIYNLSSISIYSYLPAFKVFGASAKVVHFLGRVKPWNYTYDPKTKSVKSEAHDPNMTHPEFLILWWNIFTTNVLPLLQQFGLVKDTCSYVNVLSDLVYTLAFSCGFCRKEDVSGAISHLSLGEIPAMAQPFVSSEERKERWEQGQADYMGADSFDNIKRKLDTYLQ
Method in brief: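 hGYS2/GN1 200 nM; UDP-Glc 2 mM; glycogen 0.2%; G6P 2 mM; PEP 2 mM, NADH 0.6 mM, PK/LDH 20 U/mL. 50 mM Tris pH 7.5, MgCl2, KCl, BSA, TCEP, 2.5% DMSO. Kinetic A340, 10 min. IC50 = geomean of ≥2 runs.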

hGYS1 enzyme (recombinant hGYS1/GN1 protein), sequence (P13807 whole entry): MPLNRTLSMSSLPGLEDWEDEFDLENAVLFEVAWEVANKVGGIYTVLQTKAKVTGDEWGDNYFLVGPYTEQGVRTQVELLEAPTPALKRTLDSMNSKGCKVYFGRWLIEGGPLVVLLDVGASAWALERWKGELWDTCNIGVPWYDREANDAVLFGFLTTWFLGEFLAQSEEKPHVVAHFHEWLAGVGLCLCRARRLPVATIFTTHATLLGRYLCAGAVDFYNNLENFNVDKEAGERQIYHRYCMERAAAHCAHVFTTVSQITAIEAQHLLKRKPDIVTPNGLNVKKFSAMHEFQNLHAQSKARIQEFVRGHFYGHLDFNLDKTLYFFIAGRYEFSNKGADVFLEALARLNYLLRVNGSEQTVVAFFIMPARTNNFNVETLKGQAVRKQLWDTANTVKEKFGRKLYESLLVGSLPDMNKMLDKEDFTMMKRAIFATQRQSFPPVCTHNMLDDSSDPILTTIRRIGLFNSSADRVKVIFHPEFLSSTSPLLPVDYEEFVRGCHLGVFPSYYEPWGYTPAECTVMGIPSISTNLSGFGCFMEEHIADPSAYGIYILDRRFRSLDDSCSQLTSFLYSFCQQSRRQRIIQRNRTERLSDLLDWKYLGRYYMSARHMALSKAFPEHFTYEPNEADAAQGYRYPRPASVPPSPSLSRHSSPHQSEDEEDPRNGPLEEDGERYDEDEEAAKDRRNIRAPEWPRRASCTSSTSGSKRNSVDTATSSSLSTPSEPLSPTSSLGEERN
hGYS1 enzyme (recombinant hGYS1/GN1 protein), sequence (P46976 whole entry partner): as the sequence (P46976 whole entry partner) above

SMILES | IC50 [1] [nM] | IC50 [2] [nM] | IC50 [3] [nM]
C[C@@H](NC(=O)N(C)C)C(=O)N1C[C@H](F)C[C@H]1C(=O)N[C@@H](c1ccccc1)c1ccc(C2CC2)c(F)n1 [Compound 311, (2S,4R)-N-[(S)-(5-cyclopropyl-6-fluoropyridin-2-yl)(phenyl)methyl]-1-[(2R)-2-[(dimethylcarbamoyl)amino]propanoyl]-4-fluoropyrrolidine-2-carboxamide] | 127 | 2100 | > 100000
Cc1cnc(CC(=O)N2C[C@H](F)C[C@H]2C(=O)N[C@@H](c2ccccc2)c2ccc(C3CC3)c(F)n2)o1 [Compound 313, (2S,4R)-N-[(S)-(5-cyclopropyl-6-fluoropyridin-2-yl)(phenyl)methyl]-4-fluoro-1-[2-(5-methyl-1,3-oxazol-2-yl)acetyl]pyrrolidine-2-carboxamide] | 39 | 860 | > 100000
Cc1coc(CC(=O)N2C[C@H](F)C[C@H]2C(=O)N[C@@H](c2ccccc2)c2ccc(C3CC3)c(F)n2)n1 [Compound 314, (2S,4R)-N-[(S)-(5-cyclopropyl-6-fluoropyridin-2-yl)(phenyl)methyl]-4-fluoro-1-[2-(4-methyl-1,3-oxazol-2-yl)acetyl]pyrrolidine-2-carboxamide] | 63 | 1010 | > 100000
O=C(N[C@@H](c1ccccc1)c1ccc(C2CC2)c(F)n1)[C@@H]1C[C@@H](F)CN1C(=O)CNC(=O)N1CC(F)(F)C1 [Compound 315, (2S,4R)-N-[(S)-(5-cyclopropyl-6-fluoropyridin-2-yl)(phenyl)methyl]-1-{2-[(3,3-difluoroazetidine-1-carbonyl)amino]acetyl}-4-fluoropyrrolidine-2-carboxamide] | 23 | 730 | > 100000
Cc1nn(CC(=O)N2C[C@H](F)C[C@H]2C(=O)N[C@@H](c2ccccc2)c2ccc(C3CC3)c(F)n2)c(=O)o1 [Compound 316, (2S,4R)-N-[(S)-(5-cyclopropyl-6-fluoropyridin-2-yl)(phenyl)methyl]-4-fluoro-1-[2-(5-methyl-2-oxo-2,3-dihydro-1,3,4-oxadiazol-3-yl)acetyl]pyrrolidine-2-carboxamide] | 37 | 930 | > 100000
O=C(N[C@@H](c1ccccc1)c1ccc(C2CC2)c(F)n1)[C@@H]1C[C@@H](F)CN1C(=O)Cn1ncc(N2CC(F)(F)C2)n1 [Compound 318, (2S,4R)-N-[(S)-(5-cyclopropyl-6-fluoropyridin-2-yl)(phenyl)methyl]-1-{2-[4-(3,3-difluoroazetidin-1-yl)-2H-1,2,3-triazol-2-yl]acetyl}-4-fluoropyrrolidine-2-carboxamide] | 20 | 580 | > 100000
CC(C)c1ccc([C@@H](NC(=O)[C@@H]2C[C@@H](F)CN2C(=O)Cn2nncc2C(F)(F)F)c2ccccc2)cc1F [Compound 322, (2S,4R)-4-fluoro-N—((S)-(3-fluoro-4-isopropylphenyl)(phenyl)methyl)-1-(2-(5-(trifluoromethyl)-1H-1,2,3-triazol-1-yl)acetyl)pyrrolidine-2-carboxamide] | 13 | 290 | > 100000
CC(C)c1ccc([C@@H](NC(=O)[C@@H]2C[C@@H](F)CN2C(=O)Cc2cnn[nH]2)c2ccccc2)cc1F [Compound 326, (2S,4R)-4-fluoro-N-[(S)-[3-fluoro-4-(propan-2-yl)phenyl](phenyl)methyl]-1-[2-(1H-1,2,3-triazol-5-yl)acetyl]pyrrolidine-2-carboxamide] | 20 | 340 | > 100000
CC(C)c1ccc([C@@H](NC(=O)[C@@H]2C[C@@H](F)CN2C(=O)Cc2ccno2)c2ccccc2)cc1F [Compound 338, (2S,4R)-4-fluoro-N-[(S)-[3-fluoro-4-(propan-2-yl)phenyl](phenyl)methyl]-1-[2-(1,2-oxazol-5-yl)acetyl]pyrrolidine-2-carboxamide] | 34 | 390 | > 100000

More lines, in order of falling IC50 [1], values ahead:

IC50 [1] [nM] | IC50 [2] [nM] | IC50 [3] [nM] | SMILES
197 | 1590 | > 100000 | O=C(N[C@@H](c1ccccc1)c1ccc(C2CC2)c(F)n1)[C@@H]1[C@H]2C[C@H]2CN1C(=O)Cc1cnn[nH]1 [Compound 320, (1S,2S,5R)-N-[(S)-(5-cyclopropyl-6-fluoropyridin-2-yl)(phenyl)methyl]-3-[2-(1H-1,2,3-triazol-5-yl)acetyl]-3-azabicyclo[3.1.0]hexane-2-carboxamide]
124 | 1240 | > 100000 | C[C@H]1CC[C@@H](C(=O)N[C@@H](c2ccccc2)c2ccc(C3CC3)c(F)n2)N1C(=O)Cc1cnn[nH]1 [Compound 321, (2S,5S)-N-[(S)-(5-cyclopropyl-6-fluoropyridin-2-yl)(phenyl)methyl]-5-methyl-1-[2-(1H-1,2,3-triazol-5-yl)acetyl]pyrrolidine-2-carboxamide]
97 | 830 | > 100000 | O=C(N[C@@H](c1ccccc1)c1ccc(C2CC2)c(F)n1)[C@@H]1C[C@@H](F)CN1C(=O)Cc1ncco1 [Compound 312, (2S,4R)-N-[(S)-(5-cyclopropyl-6-fluoropyridin-2-yl)(phenyl)methyl]-4-fluoro-1-[2-(1,3-oxazol-2-yl)acetyl]pyrrolidine-2-carboxamide]
75 | 1290 | > 100000 | C[C@H](NC(=O)N(C)C)C(=O)N1C[C@H](F)C[C@H]1C(=O)N[C@@H](c1ccccc1)c1ccc(C2CC2)c(F)n1 [Compound 310, (2S,4R)-N-[(S)-(5-cyclopropyl-6-fluoropyridin-2-yl)(phenyl)methyl]-1-[(2S)-2-[(dimethylcarbamoyl)amino]propanoyl]-4-fluoropyrrolidine-2-carboxamide]
74 | 900 | > 100000 | CC(C)c1ccc([C@@H](NC(=O)[C@@H]2CC[C@H](C)N2C(=O)Cc2cnn[nH]2)c2ccccc2)cc1F [Compound 323, (2S,5S)-N-[(S)-[3-fluoro-4-(propan-2-yl)phenyl](phenyl)methyl]-5-methyl-1-[2-(1H-1,2,3-triazol-5-yl)acetyl]pyrrolidine-2-carboxamide]
55 | 970 | > 100000 | O=C(N[C@@H](c1ccccc1)c1ccc(C2CC2)c(F)n1)[C@@H]1C[C@@H](F)CN1C(=O)CNc1ncco1 [Compound 309, (2S,4R)-N-[(S)-(5-cyclopropyl-6-fluoropyridin-2-yl)(phenyl)methyl]-4-fluoro-1-{2-[(1,3-oxazol-2-yl)amino]acetyl}pyrrolidine-2-carboxamide]
37 | 450 | > 100000 | CC(C)c1ccc([C@@H](NC(=O)[C@@H]2C[C@@H](F)CN2C(=O)Cc2cnnn2C)c2ccccc2)cc1F [Compound 335, (2S,4R)-4-fluoro-N-[(S)-[3-fluoro-4-(propan-2-yl)phenyl](phenyl)methyl]-1-[2-(1-methyl-1H-1,2,3-triazol-5-yl)acetyl]pyrrolidine-2-carboxamide]
25 | 270 | > 100000 | Cc1nnc(CC(=O)N2C[C@H](F)C[C@H]2C(=O)N[C@@H](c2ccccc2)c2ccc(C(C)C)c(F)c2)o1 [Compound 332, (2S,4R)-4-fluoro-N-[(S)-[3-fluoro-4-(propan-2-yl)phenyl](phenyl)methyl]-1-[2-(5-methyl-1,3,4-oxadiazol-2-yl)acetyl]pyrrolidine-2-carboxamide]
21 | 560 | > 100000 | CC(C)c1ccc([C@@H](NC(=O)[C@@H]2C[C@@H](F)CN2C(=O)Cn2cnnn2)c2ccccc2)cc1F [Compound 330, (2S,4R)-4-fluoro-N-[(S)-[3-fluoro-4-(propan-2-yl)phenyl](phenyl)methyl]-1-[2-(1H-1,2,3,4-tetrazol-1-yl)acetyl]pyrrolidine-2-carboxamide]
18 | 310 | > 100000 | CC(C)c1ccc([C@@H](NC(=O)[C@@H]2C[C@@H](F)CN2C(=O)CN2CC(=O)N(C)CC2=O)c2ccccc2)cc1F [Compound 339, (2S,4R)-4-fluoro-N-[(S)-[3-fluoro-4-(propan-2-yl)phenyl](phenyl)methyl]-1-[2-(4-methyl-2,5-dioxopiperazin-1-yl)acetyl]pyrrolidine-2-carboxamide]
17 | 390 | > 100000 | O=C(N[C@@H](c1ccccc1)c1ccc(C2CC2)c(F)n1)[C@@H]1C[C@@H](F)CN1C(=O)Cn1ncc(N2CCC2)n1 [Compound 317, (2S,4R)-1-{2-[4-(azetidin-1-yl)-2H-1,2,3-triazol-2-yl]acetyl}-N-[(S)-(5-cyclopropyl-6-fluoropyridin-2-yl)(phenyl)methyl]-4-fluoropyrrolidine-2-carboxamide]
15 | 280 | > 100000 | CC(C)c1ccc([C@@H](NC(=O)[C@@H]2C[C@@H](F)CN2C(=O)Cc2cn(C)nn2)c2ccccc2)cc1F [Compound 336]
7 | 240 | > 100000 | CCN(CC)c1cnn(CC(=O)N2C[C@H](F)C[C@H]2C(=O)N[C@@H](c2ccccc2)c2ccc(C3CC3)c(F)n2)n1 [Compound 319, (2S,4R)-N-[(S)-(5-cyclopropyl-6-fluoropyridin-2-yl)(phenyl)methyl]-1-{2-[4-(diethylamino)-2H-1,2,3-triazol-2-yl]acetyl}-4-fluoropyrrolidine-2-carboxamide]
